Reference: patent publication US20220402862A1 (Intellia Therapeutics, Inc., priority 2019, published 2022)

What was measured:
[1] = Dynamic light scattering of LNPs: Z-average diameter, number average diameter, PDI; assay type: physicochemical; conditions: LNP, sg:mRNA 1:1, N/P about 6, 50/9/38/3; Table 2, Experiments 2-20
Summary of the method: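 Values reported are the Z-average (intensity-weighted mean size), the number-average diameter and the PDI (spread of sizes, 0 = fully uniform). All three came from dynamic light scattering of LNP preparations after dilution in PBS.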

[2] = pKa measurement of unformulated amine lipid (fluorescence, method of Jayaraman et al.); assay type: physicochemical; conditions: 100 μM in 0.1 M phosphate buffer, pH 2.0-12.0
Protocol: The pKa of each amine lipid was determined according to the method in Jayaraman, et al. (Angewandte Chemie, 2012) with the following adaptations. […] Lipid was diluted to 100 μM in 0.1 M phosphate buffer (Boston Bioproducts) where the pH ranged from 2.0-12.0. Fluorescence intensity was measured using excitation and emission wavelengths of 321 nm and 448 nm.

[3] = RNA encapsulation efficiency of LNPs (Ribogreen fluorescence assay); assay type: physicochemical; conditions: LNP, sg:mRNA 1:1, N/P about 6, amine lipid/DSPC/cholesterol/PEG-2k-DMG 50/9/38/3; Table 2, Experiments 2-20
Summary of the method: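 Encapsulation efficiency is (Total RNA − Free RNA)/Total RNA. Free RNA was quantified by RiboGreen fluorescence (488/525 nm, ~10 min, RT, dark) in plain TE buffer; total RNA was quantified after LNP lysis with 0.2% Triton X-100, both against RNA standard curves.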

Transthyretin (TTR) = experiment: Serum TTR ELISA in mice after LNP dosing; assay type: in vivo, CD-1 female mice; conditions: guide G282 experiments; for Serum TTR % TSS: mouse serum TTR relative to TSS control; for Serum TTR: mouse serum, ELISA
Summary of the method: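 Serum mouse TTR was quantified by ELISA at 10,000-fold dilution for 0.1 mg/kg and 10,000/2,500-fold for 0.3 mg/kg. Samples came from female CD-1 mice (6–10 weeks) killed 6 or 7 days after a single intravenous LNP dose, usually 0.1 mg/kg.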

SMILES	Number mean (nm) [1] [nm]	PDI [1]	Z-avg (nm) [1] [nm]	pKa [2]	Encapsulation (%) [3] [%]	Serum TTR % TSS (Transthyretin (TTR)) [%]	Serum TTR (Transthyretin (TTR)) [µg/mL]
CCCCCC/C=C\COC(=O)CCCCCCCC(=O)OCC(COC(=O)CCCCCC(=O)OC(CCCCCCCC)CCCCCCCC)COC(=O)OCCCN(CC)CC (centres unmarked) [Compound 85, (Z)-1-(3-(((3-(diethylamino)propoxy)carbonyl)oxy)-2-(((7-(heptadecan-9-yloxy)-7-oxoheptanoyl)oxy)methyl)propyl) 9-(non-2-en-1-yl) nonanedioate]	81.21	0.006	97.86	6.16	99	84	762
CCCCCC/C=C\COC(=O)CCCCCCCC(=O)OCC(COC(=O)CCCC(=O)OC(CCCCCCCC)CCCCCCCC)COC(=O)OCCCN(CC)CC (centres unmarked) [Compound 86, (Z)-1-(3-(((3-(diethylamino)propoxy)carbonyl)oxy)-2-(((5-(heptadecan-9-yloxy)-5-oxopentanoyl)oxy)methyl)propyl) 9-(non-2-en-1-yl) nonanedioate]	81.23	0.016	99.01	6.16	98	64	582
CCCCCCCCCCOC(=O)CCCCCCCC(=O)OCC(COC(=O)CCCC(=O)OC(CCCCCCCC)CCCCCCCC)COC(=O)NCCN(CC)CC (centres unmarked) [Compound 88, 1-decyl 9-(3-(((2-(diethylamino)ethyl)carbamoyl)oxy)-2-(((5-(heptadecan-9-yloxy)-5-oxopentanoyl)oxy)methyl)propyl) nonanedioate]	99.51	0.011	117.1	6.84	98	77	582
CCCCCCCCCCOC(=O)CCCCCCCC(=O)OCC(COC(=O)CCCC(=O)OC(CCCCCCCC)CCCCCCCC)COC(=O)CCCN(C)C (centres unmarked) [Compound 89, 1-decyl 9-(3-((4-(dimethylamino)butanoyl)oxy)-2-(((5-(heptadecan-9-yloxy)-5-oxopentanoyl)oxy)methyl)propyl) nonanedioate]	89.4	0.008	107.3	6.79	95	102	774
CCCCCCCCCCOC(=O)CCCCCCCCCCCC(=O)OCC(COC(=O)CCC(OCCCCCCCC)OCCCCCCCC)COC(=O)OCCCN(CC)CC (centres unmarked) [Compound 91, 1-(3-((4,4-bis(octyloxy)butanoyl)oxy)-2-((((3-(diethylamino)propoxy)carbonyl)oxy)methyl)propyl) 13-decyl tridecanedioate]	75.67	0.028	93.13	6.08	99	84	633
CCCCCCCCCCCCCCOC(=O)CCCCCCCC(=O)OCC(COC(=O)CCC(OCCCCCCCC)OCCCCCCCC)COC(=O)OCCCN(CC)CC (centres unmarked) [Compound 93, 1-(3-((4,4-bis(octyloxy)butanoyl)oxy)-2-((((3-(diethylamino)propoxy)carbonyl)oxy)methyl)propyl) 9-tetradecyl nonanedioate]	78.73	0.004	95.19	6.15	98	88	669

Second part, led by results:

Number mean (nm) [1] [nm]	PDI [1]	Z-avg (nm) [1] [nm]	pKa [2]	Encapsulation (%) [3] [%]	SMILES	Serum TTR % TSS (Transthyretin (TTR)) [%]	Serum TTR (Transthyretin (TTR)) [µg/mL]
81.57	0.006	98.47	6.52	98	CCCCCCCCCCOC(=O)CCCCCCCC(=O)OCC(COC(=O)CCCC(=O)OC(CCCCCCCC)CCCCCCCC)COC(=O)OCCC1CCCN1C (centres unmarked) [Compound 87, 1-decyl 9-(3-((5-(heptadecan-9-yloxy)-5-oxopentanoyl)oxy)-2-((((2-(1-methylpyrrolidin-2-yl)ethoxy)carbonyl)oxy)methyl)propyl) nonanedioate]	68	511
81.15	0.017	99.62	6.14	99	CCCCCCCCCCOC(=O)CCCCCCCCCC(=O)OCC(COC(=O)CCC(OCCCCCCCC)OCCCCCCCC)COC(=O)OCCCN(CC)CC (centres unmarked) [Compound 90, 1-(3-((4,4-bis(octyloxy)butanoyl)oxy)-2-((((3-(diethylamino)propoxy)carbonyl)oxy)methyl)propyl) 11-decyl undecanedioate]	67	504
77.35	0.022	93.69	6.16	99	CCCCCCCCCCCCOC(=O)CCCCCCCC(=O)OCC(COC(=O)CCC(OCCCCCCCC)OCCCCCCCC)COC(=O)OCCCN(CC)CC (centres unmarked) [Compound 92, 1-(3-((4,4-bis(octyloxy)butanoyl)oxy)-2-((((3-(diethylamino)propoxy)carbonyl)oxy)methyl)propyl) 9-dodecyl nonanedioate]	62	470
74.5	0.029	91.1	6.14	99	CCCCCCCCCC(CC)OC(=O)CCCCCCCC(=O)OCC(COC(=O)CCC(OCCCCCCCC)OCCCCCCCC)COC(=O)OCCCN(CC)CC (centres unmarked) [Compound 95, 1-(3-((4,4-bis(octyloxy)butanoyl)oxy)-2-((((3-(diethylamino)propoxy)carbonyl)oxy)methyl)propyl) 9-(dodecan-3-yl) nonanedioate]	54	408
65.94	0.019	81.55	5.76	98	CCCCC/C=C\C/C=C\CCCCCCCC(=O)OCC(C)(COC(=O)CCC(OCCCCCCCC)OCCCCCCCC)COC(=O)OCCCN(CC)CC (centres unmarked) [Compound 96, 3-((4,4-bis(octyloxy)butanoyl)oxy)-2-((((3-(diethylamino)propoxy)carbonyl)oxy)methyl)-2-methylpropyl (9Z,12Z)-octadeca-9,12-dienoate]	58	449
